Test results taken from PMC10518421, “Zebrafish as model system for the biological characterization of CK1 inhibitors” (Frontiers in Pharmacology, 2023).
“Also recorded” adds a separate entry of the source. Read-outs that look alike come from different tables or passages of the source.

How the values were obtained:
zebrafish embryos = conditions: for phenotype of treated zebrafish embryos: 24 to 72 hpf (48 h); for dose dependence of phenotype: 5, 10, 20 and 40 µM
Protocol: The TüAB wildtype strain was used for all experiments. […] Zebrafish embryos were dechorionated at 24 h post fertilization (hpf) and treated with the respective concentration of inhibitor, dissolved in DMSO (Sigma-Aldrich, Stadt, Land) and diluted in E3 medium (5 mM NaCl, 0.17 mM KCl, 0.33 mM CaCl2, 0.33 mM MgSO4, 0.6 µM Methylene Blue dissolved in water). DMSO served as solvent control. Embryos were treated from 24 hpf until 72 hpf, the compound solution was renewed daily. Pictures and movies were recorded at 48 and 72 hpf. […] Pictures were taken on an Olympus stereo microscope SZX16 and movies were recorded on an inverse Leica stereo microscope DM IL LED Fluo equipped with a FLEXACAM C1.
Embryos were dechorionated at 24 hpf and treated with 20 µM of the respective inhibitor (Figure 6A).

GST-humCK1δ^TV1 = biological target: T1, GST-humCK1δ^TV1 (Homo sapiens, UniProt P48730); experiment: in vitro kinase assay, α-casein phosphorylation with [γ-32P]-ATP, standard conditions; format: biochemical; conditions: for mean residual kinase activity ± SD: 20 µM inhibitor, normalized to DMSO control
T1 construct: made in house; host or cells: E. coli Rosetta 2 (DE3)
Protocol: (§1) Each in vitro kinase reaction was performed in a total volume of 15 µL containing 25 mM Tris-HCl (pH 7.0), 10 mM MgCl2, 100 µM EDTA, 2.8 µM of the substrate α-casein and 0.4 pmol [γ-^32P]-ATP at 30°C. […] Reactions were stopped by adding 3 µL of 5x SDS loading buffer and incubating at 95°C for 5 min. Proteins were separated by SDS-PAGE and stained with Coomassie Brilliant Blue R250 (Waldeck GmbH & Co. KG, Muenster, Germany). Autoradiography visualized the incorporation of radioactively labelled γ-phosphate into the proteins. A quantitative analysis of the radioactive signal was performed by excising the proteins from dried gels and measuring phosphate incorporation via Cherenkov counting (Beckmann Scintillation Counter). For the determination of the initial velocity region, a linear regression was performed. Thereby, the number of included data-points was decreased stepwise, and the point of time with the highest maximum coefficient of determination (R ^2) was chosen as the kinase-specific standard reaction time. For determination of the maximal velocity (Vmax) and Michaelis constant (Km) of ATP, various ATP concentrations in a range from 0.5 to 250 µM were tested. Raw data was used for the calculation of enzyme velocity (V) in [pmol/min]. Then, V was plotted over substrate (ATP) concentration and fitted to the Michaelis-Menten model via GraphPad Prism 8 (GraphPad Software, La Jolla, CA, United States). According to the Michaelis-Menten curve, Km, which is the concentration of the substrate, that is needed to obtain half Vmax, was calculated. For determination of IC50 values, the scintillation data measured in cpm was transformed to pmol of transferred phosphate. The data was then transformed logarithmically (X = log(X)), normalized to DMSO (100%) and zero (0%) before fitting to sigmoidal dose-response curves with variable slope with nonlinear regression using GraphPad Prism 7.
(§2) In compliance with the established standard conditions the kinase assays were performed in the presence of 20 µM of the respective inhibitor (Figure 7).
(§3) Next, in vitro kinase assays were performed in absence and presence of the respective SMI at different concentrations (ranging from 13 to 26667 nM). The kinase activity of the inhibitor-treated samples was normalized to the DMSO-control and plotted against the inhibitor concentration (Figure 10).

CK1δ = conditions: prior to standardization, cited from earlier work
CK1ε = CK1ε (Homo sapiens, UniProt P49674); experiment: initial IC50 determination in in vitro kinase assays, prior to standardization; format: biochemical; conditions: marked * not published, read-out: IC50 values CK1ε
Protocol: (§4) The SMIs used in this study (summarized in Supplementary Table S2) were selected based on their inhibitory capacity toward CK1δ in vitro, whereby a broad range of inhibitors with varying efficiency were included. The determination of IC50-values was conducted prior to the standardization workflow establishment. Zebrafish embryos treated with 20 µM of the respective compound were phenotypically analyzed.
(§5) Supplementary Table 6: List of the inhibitors that were selected for the in vivo screening of zebrafish embryonic development. The compounds were selected based on their ability to inhibit CK1δ in in vitro kinase assays. The initial IC50-values were determined prior to the establishment of the standardized in vitro kinase assay protocol. The Supplementary Table summarizes, whether the zebrafish embryos presented an abnormal phenotype upon inhibitor treatment. The inhibitors were added to the zebrafish medium in a concentration of 20 µM.

GST-CK1ε = biological target: T2, GST-CK1ε (Homo sapiens, UniProt P49674); experiment: in vitro kinase assay, α-casein phosphorylation with [γ-32P]-ATP, standard conditions; format: biochemical; conditions: 20 µM inhibitor, normalized to DMSO control
T2 construct: made in house; host or cells: E. coli Rosetta 2 (DE3)
Protocol: as §1, §2

His-DrCK1δB = biological target: T3, His-DrCK1δB (Danio rerio, UniProt Q6P3K7); experiment: as above; format: biochemical, zebrafish (Danio rerio); conditions: for mean residual kinase activity ± SD: 20 µM inhibitor, normalized to DMSO control
T3 construct: made in house; host or cells: E. coli Rosetta 2 (DE3)
T3 sequence (Q6P3K7 1-409): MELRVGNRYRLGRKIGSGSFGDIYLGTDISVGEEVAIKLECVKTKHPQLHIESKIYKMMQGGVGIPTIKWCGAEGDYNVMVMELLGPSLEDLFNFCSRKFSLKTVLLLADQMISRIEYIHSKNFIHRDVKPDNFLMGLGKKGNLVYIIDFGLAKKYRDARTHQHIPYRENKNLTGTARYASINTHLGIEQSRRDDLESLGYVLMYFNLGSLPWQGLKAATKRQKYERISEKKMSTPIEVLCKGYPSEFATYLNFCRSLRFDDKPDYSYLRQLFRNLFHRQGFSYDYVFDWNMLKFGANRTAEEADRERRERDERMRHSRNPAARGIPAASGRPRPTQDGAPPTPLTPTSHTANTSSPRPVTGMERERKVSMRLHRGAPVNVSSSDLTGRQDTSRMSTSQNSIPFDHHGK
Protocol: as §1, §2, §3

His-DrCK1δA = biological target: T4, His-DrCK1δA (Danio rerio, UniProt Q7T2E3); experiment: as above; format: biochemical, zebrafish (Danio rerio); conditions: for mean residual kinase activity ± SD: 20 µM inhibitor, normalized to DMSO control
T4 construct: made in house; host or cells: E. coli Rosetta 2 (DE3)
T4 sequence (Q7T2E3 1-403): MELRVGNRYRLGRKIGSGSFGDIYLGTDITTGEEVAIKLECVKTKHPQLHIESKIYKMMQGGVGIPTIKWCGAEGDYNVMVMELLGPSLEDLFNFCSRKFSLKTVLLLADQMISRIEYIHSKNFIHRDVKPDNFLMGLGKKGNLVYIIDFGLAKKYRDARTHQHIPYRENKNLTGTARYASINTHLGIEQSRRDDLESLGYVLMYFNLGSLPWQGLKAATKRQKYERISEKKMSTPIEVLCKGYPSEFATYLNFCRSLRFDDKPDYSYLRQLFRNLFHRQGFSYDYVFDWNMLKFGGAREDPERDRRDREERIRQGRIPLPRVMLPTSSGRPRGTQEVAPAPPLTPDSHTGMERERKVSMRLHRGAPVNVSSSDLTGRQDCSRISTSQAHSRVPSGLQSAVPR
Protocol: as §1, §2, §3

His-DrCK1ε = experiment: as above; format: biochemical, zebrafish (Danio rerio); conditions: 20 µM inhibitor, normalized to DMSO control
Protocol: as §1, §2

CK1δ (TV1) = CK1δ (TV1) (Homo sapiens, UniProt P48730); experiment: initial IC50 determination in in vitro kinase assays, prior to standardization; format: biochemical; conditions: not published
Protocol: as §4, §5

csnk1db (CK1δB) = experiment: morpholino knockdown in zebrafish embryos, phenotype; format: in vivo, zebrafish (D. rerio); conditions: 300 µM injected, 72 hpf
Description: The TüAB wildtype strain was used for all experiments. […] DMSO served as solvent control. […] Embryos were immobilized in 2.5% methylcellulose.

[1] = inhibitor 13 to 26667 nM, ATP at Km, normalized to DMSO
[2] = resulting from IC50 (Cheng-Prusoff, ATP at Km)

T2 sequence (P49674 whole entry): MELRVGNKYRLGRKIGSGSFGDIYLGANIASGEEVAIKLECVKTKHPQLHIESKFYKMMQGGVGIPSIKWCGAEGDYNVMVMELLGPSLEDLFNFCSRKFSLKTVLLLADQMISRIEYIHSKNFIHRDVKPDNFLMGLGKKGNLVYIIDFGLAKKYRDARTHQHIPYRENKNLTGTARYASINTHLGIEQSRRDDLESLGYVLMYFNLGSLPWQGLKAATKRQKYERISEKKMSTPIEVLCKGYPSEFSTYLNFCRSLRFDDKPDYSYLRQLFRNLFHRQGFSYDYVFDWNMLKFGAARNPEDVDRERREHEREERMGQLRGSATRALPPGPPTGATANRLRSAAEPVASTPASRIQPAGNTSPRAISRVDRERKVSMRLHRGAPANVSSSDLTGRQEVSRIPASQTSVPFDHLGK
Chain of CK1δ (TV1) (P48730 whole entry): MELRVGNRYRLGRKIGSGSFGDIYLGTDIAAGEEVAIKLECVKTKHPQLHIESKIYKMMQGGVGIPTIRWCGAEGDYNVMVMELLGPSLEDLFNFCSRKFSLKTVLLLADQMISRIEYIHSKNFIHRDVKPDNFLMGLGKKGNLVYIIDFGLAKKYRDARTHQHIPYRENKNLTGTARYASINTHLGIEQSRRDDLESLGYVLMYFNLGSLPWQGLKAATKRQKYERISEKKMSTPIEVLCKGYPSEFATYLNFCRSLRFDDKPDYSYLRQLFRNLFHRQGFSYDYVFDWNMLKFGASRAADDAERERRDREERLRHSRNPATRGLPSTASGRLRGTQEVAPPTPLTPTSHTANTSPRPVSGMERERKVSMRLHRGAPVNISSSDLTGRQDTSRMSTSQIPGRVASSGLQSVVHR
T1 sequence (P48730 whole entry): as above
Chain of CK1ε (P49674 whole entry): as the sequence (P49674 whole entry) above

Compound: O=C(CSc1nccc(=O)n1Cc1ccc(C(F)(F)F)cc1)Nc1nc2ccc(C(F)(F)F)cc2s1 [G2-2]
- phenotype of treated zebrafish embryos (zebrafish embryos; 5 µM): cardiac phenotype, with bradycardia and blood congestion
- phenotype of treated zebrafish embryos (zebrafish embryos; 10 µM): did not pump blood; also recorded: reduced heart function; also recorded: blood congestion and pericardial edema
- Phenotypic changes (with severity) after treatment of zebrafish embryos with 20 µM inhibitor (zebrafish embryos; 20 µM in medium, from 24 hpf): Yes (severe)
- phenotype of treated zebrafish embryos (zebrafish embryos; 20 µM): strong cardiac phenotype, with blood congestion, a strong bradycardia and partially total loss of heart beat; also recorded: severe effects on the embryonic development, with strong bradycardia and blood congestion; also recorded: blood congestions; also recorded: pericardial edema
- phenotype of treated zebrafish embryos (zebrafish embryos; 40 µM): dead and highly toxic, and all treated embryos were dead after 48 h of treatment
- concentration that induced necrosis (zebrafish embryos; 48 h of incubation, doses 5, 10, 20 and 40 µM): 40 µM
- lethality to embryos (zebrafish embryos; at concentrations of 20 and 40 μM): lethal
- mean residual kinase activity ± SD (GST-humCK1δ^TV1): 8.4 ± 1.1%
- IC50 (GST-humCK1δ^TV1; [1]): 503 nM
- Ki (GST-humCK1δ^TV1; [2]): 251 nM
- IC50 (CK1δ; ref Liu et al., 2019): 120 nM
- IC50 (CK1ε): 926 nM
- mean residual kinase activity ± SD (GST-CK1ε): 11.9 ± 2.0%
- mean residual kinase activity ± SD (His-DrCK1δB): 16.1 ± 9.5%
- IC50 (His-DrCK1δB; [1]): 270 nM
- Ki (His-DrCK1δB; [2]): 135 nM
- mean residual kinase activity ± SD (His-DrCK1δA): 12.1 ± 3.9%
- IC50 (His-DrCK1δA; [1]): 345 nM
- Ki (His-DrCK1δA; [2]): 173 nM
- mean residual kinase activity ± SD (His-DrCK1ε): 10.5 ± 3.0%

Compound: COc1cccc(-n2c(SCC(=O)Nc3nc4ccc(C(F)(F)F)cc4s3)nccc2=O)c1 [G2-6, 2-((3-(3-Methoxyphenyl)-4-oxo-3,4-dihydropyrimidin-2-yl)thio)-N-(6-(trifluormethyl)benzo[d]thiazol-2-yl)acetamid]
- phenotype of treated zebrafish embryos (zebrafish embryos; 5 µM): cardiac phenotype, with bradycardia and blood congestion, resulting in cardiac edema
- phenotype of treated zebrafish embryos (zebrafish embryos; 10 µM): blood congestion and pericardial edema
- Phenotypic changes (with severity) after treatment of zebrafish embryos with 20 µM inhibitor (zebrafish embryos; 20 µM in medium, from 24 hpf): Yes (severe)
- phenotype of treated zebrafish embryos (zebrafish embryos; 20 µM): strong cardiac phenotype, with blood congestion, a strong bradycardia and partially total loss of heart beat; also recorded: severe effects on the embryonic development, with strong bradycardia and blood congestion; also recorded: blood congestions; also recorded: pericardial edema
- phenotype of treated zebrafish embryos (zebrafish embryos; 40 µM): bradycardia, a loss of ventricular beating and as a result pericardial edema
- dose dependence of phenotype (zebrafish embryos; 48 h of incubation): increasingly severe cardiac malfunctions with increasing compound concentrations
- mean residual kinase activity ± SD (GST-humCK1δ^TV1): 9.1 ± 1.6%
- IC50 (CK1δ (TV1)): 1400 nM
- mean residual kinase activity ± SD (GST-CK1ε): 18.0 ± 4.8%
- mean residual kinase activity ± SD (His-DrCK1δB): 10.0 ± 1.3%
- mean residual kinase activity ± SD (His-DrCK1δA): 11.9 ± 3.2%
- mean residual kinase activity ± SD (His-DrCK1ε): 25.5 ± 10.7%

Compound: O=C(CSc1nc2c(c(=O)n1-c1ccccc1)SCC2)Nc1nc2ccc(C(F)(F)F)cc2s1 [G1-1]
- Phenotypic changes (zebrafish embryos; zebrafish, in vivo): Mild bradycardia
- Phenotypic changes (with severity) after treatment of zebrafish embryos with 20 µM inhibitor (zebrafish embryos; zebrafish, in vivo): Yes (mild)
- IC50 (CK1δ; ref García-Reyes et al., 2018): 660 nM

Compound: COc1ccc(-n2c(SCC(=O)Nc3nc4ccc(C(F)(F)F)cc4s3)nccc2=O)cc1 [G2-5, 2-((3-(4-Methoxyphenyl)-4-oxo-3,4-dihydropyrimidin-2-yl)thio)-N-(6-(trifluormethyl)benzo[d]thiazol-2-yl)acetamid]
- Phenotypic changes (with severity) after treatment of zebrafish embryos with 20 µM inhibitor (zebrafish embryos; 20 µM in medium, from 24 hpf): No
- phenotype of treated zebrafish embryos (zebrafish embryos; 20 µM): no effect on zebrafish development or heart function; also recorded: did not show a phenotypic effect
- IC50 (CK1δ (TV1)): 840 nM

Compound: COc1ccccc1-n1c(SCC(=O)Nc2nc3ccc(C(F)(F)F)cc3s2)nccc1=O [G2-4, 2-((3-(2-Methoxyphenyl)-4-oxo-3,4-dihydropyrimidin-2-yl)thio)-N-(6-(trifluormethyl)benzo[d]thiazol-2-yl)acetamid]
- phenotype of treated zebrafish embryos (zebrafish embryos; 5 µM): mild phenotype with a minor blood congestion
- phenotype of treated zebrafish embryos (zebrafish embryos; 10 µM): weakly beating ventricle and a pericardial edema
- Phenotypic changes (with severity) after treatment of zebrafish embryos with 20 µM inhibitor (zebrafish embryos; 20 µM in medium, from 24 hpf): Yes (severe)
- phenotype of treated zebrafish embryos (zebrafish embryos; 20 µM): strong cardiac phenotype, with blood congestion, a strong bradycardia and partially total loss of heart beat; also recorded: severe effects on the embryonic development, with strong bradycardia and blood congestion; also recorded: pericardial edema; also recorded: almost not beating
- phenotype of treated zebrafish embryos (zebrafish embryos; 40 µM): bradycardia, a loss of ventricular beating and as a result pericardial edema
- dose dependence of phenotype (zebrafish embryos; 48 h of incubation): increasingly severe cardiac malfunctions with increasing compound concentrations
- mean residual kinase activity ± SD (GST-humCK1δ^TV1): 3.2 ± 0.3%
- IC50 (CK1δ (TV1)): 970 nM
- mean residual kinase activity ± SD (GST-CK1ε): 8.6 ± 1.6%
- mean residual kinase activity ± SD (His-DrCK1δB): 6.3 ± 0.8%
- mean residual kinase activity ± SD (His-DrCK1δA): 7.6 ± 1.2%
- mean residual kinase activity ± SD (His-DrCK1ε): 11.3 ± 3.3%

Compound: O=C(CSc1nc2c(c(=O)n1Cc1ccc(C(F)(F)F)cc1)SCC2)Nc1nc2ccc(C(F)(F)F)cc2s1 [G1-3]
- Phenotypic changes (zebrafish embryos; zebrafish, in vivo): None observed
- Phenotypic changes (with severity) after treatment of zebrafish embryos with 20 µM inhibitor (zebrafish embryos; zebrafish, in vivo): No
- IC50 (CK1δ; ref García-Reyes et al., 2018): 330 nM

Compound: csnk1db morpholino: morpholino-modified antisense oligonucleotide targeting the translational start site of csnk1db, 5′-CTGTTTCCAACTCGTAGCTCCATTG-3′ (all phosphorodiamidate morpholino (PMO))
- phenotype of morpholino injected embryos (csnk1db (CK1δB)): reduced heart function resulting in blood congestion
- phenotype of morpholino injected embryos (csnk1db (CK1δB); listed as csnk1db): cardiac malfunction; also recorded: slightly curved body axis
- phenotype of morpholino injected embryos (csnk1db (CK1δB); listed as csnk1db Morpholino): reduced heart function
